From patent US8133886B2, “Heterobicyclic carboxamides as inhibitors for kinases” (Novartis AG, priority 2006, dated 2012)

Row | melting point | Structure (SMILES)
1 | 202 to 203 °C | CC(C)(C)c1ccc(NC(=O)c2cccc3cc(Oc4cc(CO)ncn4)ccc23)cc1 [Example 18A, 6-(6-Hydroxymethyl-pyrimidin-4-yloxy)-naphthalene-1-carboxylic acid (4-tert-butyl-phenyl)-amide]
2 | 188 °C | COCc1cc(Oc2ccc3c(C(=O)Nc4ccc(C)c(C(F)(F)F)c4)cccc3c2)ncn1 [Example 18C, 6-(6-Methoxymethyl-pyrimidin-4-yloxy)-naphthalene-1-carboxylic acid (4-methyl-3-trifluoromethyl-phenyl)-amide]

Further lines, the molecule ahead of its results:

Row | Structure (SMILES) | melting point
3 | COc1ccc(-n2nc(C(C)(C)C)cc2NC(=O)c2cccc3cc(Oc4cc(NCCN(C)C)ncn4)ccc23)cc1 [Example 19, 6-[6-(2-Dimethylamino-ethylamino)-pyrimidin-4-yloxy]-naphtalene-1-carboxylic acid [5-tert-butyl-2-(4-methoxy-phenyl)-2H-pyrazol-3-yl]-amide] | 116 to 117 °C
4 | CCOC(=O)c1cc(Oc2ccc3c(C(=O)Nc4ccc(C(C)(C)C)cc4)cccc3c2)ncn1 [Example 18] | 177 to 178 °C
5 | O=C(Nc1ccc(Cl)c(C(F)(F)F)c1)N1COc2cc(Oc3ccnc(Cl)n3)ccc21 [Example 1, 6-(2-Chloro-pyrimidin-4-yloxy)-benzooxazole-3-carboxylic acid (4-chloro-3-trifluoromethyl-phenyl)-amide] | 140 to 142 °C
6 | CS(=O)(=O)Nc1nccc(Oc2ccc3c(C(=O)Nc4ccc(F)c(C(F)(F)F)c4)cccc3c2)n1 [Example 13, 6-(2-Methanesulfonylamino-pyrimidin-4-yloxy)-naphthalene-1-carboxylic acid (4-fluoro-3-trifluoromethyl-Phenyl)-amide] | 246 °C
